The assay deals with T1, hM5 (Homo sapiens, UniProt P08912).
T1 construct: expressed in transfected cells
T1 sequence (P08912 1-532): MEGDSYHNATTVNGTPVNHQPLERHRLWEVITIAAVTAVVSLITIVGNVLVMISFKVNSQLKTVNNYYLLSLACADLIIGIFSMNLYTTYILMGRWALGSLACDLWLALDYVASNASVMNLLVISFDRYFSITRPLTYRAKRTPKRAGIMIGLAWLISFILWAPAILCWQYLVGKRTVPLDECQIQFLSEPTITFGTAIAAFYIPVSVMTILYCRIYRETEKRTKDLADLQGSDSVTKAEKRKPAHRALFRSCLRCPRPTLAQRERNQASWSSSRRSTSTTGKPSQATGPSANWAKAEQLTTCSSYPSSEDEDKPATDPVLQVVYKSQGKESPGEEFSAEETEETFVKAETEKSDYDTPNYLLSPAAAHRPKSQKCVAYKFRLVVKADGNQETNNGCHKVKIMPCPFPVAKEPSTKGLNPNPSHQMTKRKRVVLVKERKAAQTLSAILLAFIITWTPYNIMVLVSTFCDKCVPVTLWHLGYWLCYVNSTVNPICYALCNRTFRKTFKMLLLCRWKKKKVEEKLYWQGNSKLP
In words: Calcium mobilization concentration-response (IC50 vs EC80 acetylcholine), CHO hM5. Format: cell-based. Here is the method:
Initial, single point (10 μM) compound characterization was performed in stable Chinese Hamster Ovary (CHO) cell lines constitutively expressing human M5 receptors. These were plated at 15,000 cells per 20 μL per well in Greiner 384-well black-walled, TC-treated, clear-bottomed plates (Fisher) in Ham's F12 medium supplemented with 10% FBS and 20 mM HEPES. Cells were incubated overnight at 37° C. under 5% CO2. The following day, medium was exchanged with assay buffer (Hank's Balanced Salt Solution supplemented with 20 mM HEPES and 2.5 mM Probenecid, pH 7.4) leaving 20 μL of assay buffer in each well. […] The cells were then incubated 50 minutes at 37° C. under 5% CO2. The assay buffer plus dye was then exchanged with fresh assay buffer leaving a volume of 20 μL in each well. Test compounds were diluted into assay buffer to a 2X (20 μM) concentration in 0.2% dimethylsulfoxide (DMSO) in columns 3-22 with matching DMSO concentration in columns 1, 2, 23, and […]; compounds were added to the assay for a final concentration of 10 μM and a final DMSO concentration of 0.1%.
Either an FDSS (Hamamatsu) or Panoptic (WaveFront Biosciences) kinetic imaging plate reader was used for assay execution and measurement of calcium flux. After establishing baseline fluorescence, test compounds (20 μL) were added to the cells using the reader's integrated pipettor and allowed to equilibrate for 140 seconds before addition of the […] concentration of acetylcholine (10 μL) along with vehicle in selected DMSO-only wells in the outer two columns . […] The raw fluorescence data from each well was normalized to the corresponding initial fluorescence reading (static ratio). The maximum fluorescence value following each addition was determined and the minimum value within that same timeframe was subtracted for each well then normalized to the average of the ECffiax maximum-minimum response, providing a % AChmax value for each addition for each well. The single point values represent mean values determined within the ECsu addition timeframe obtained from at least three independent determinations performed in triplicate or greater (error bars represent +/−SEM) unless otherwise specified.
CHO cells stably expressing hM1, hM2/Gqi5, hM3, hM4/Gqi5, hM5, rM1/Gqi5, rM3, rM4/Gqi5, or rM5 were plated in the manner described above. […] FDSS protocols were carried out as described above; the static ratio was calculated and the minimum response subtracted from the maximum response within the timeframe of each addition. This max-min response was then normalized to the maximum acetylcholine response. Calculation of IC50 was performed using the percent maximum acetylcholine response for the EC80 addition through the Vortex and Studies modules of the Dotmatics data management software. Results are stored in the Dotrnatics database and an audit trail of any changes to their analysis is generated. Data shown represent mean values obtained from at least three independent determinations performed in triplicate or greater (error bars represent±SEM) unless otherwise specified.

[1] abbreviates: CELL LINE hM5, calcium mobilization, EC80 acetylcholine addition, read-out: IC50.
Where [2] appears, read: CELL LINE hM5, vs EC80 acetylcholine, read-out: IC50.

Like-named read-outs stand apart in the source and are kept apart here.

A word on the IC50: it is the point on the concentration scale where inhibition reaches its midpoint. For `Cc1cc(C#N)cnc1C1=CCN(S(=O)(=O)c2cnn(C)c2C)CC1` [Compound 209, 1′-((1,5-dimethyl-1H-pyrazol-4-yl)sulfonyl)-3-methyl-1′,2′,3′,6′-tetrahydro-[2,4′-bipyridine]-5-carbonitrile], the IC50 under setting [1] was more than 10000 nM.
With `Cc1cc(S(=O)(=O)N2CCC(c3cnc(N(C)C)cc3C)CC2)sn1` [Compound 565, N,N,4-trimethyl-5-(1-((3-methylisothiazol-5-yl)sulfonyl)piperidin-4-yl)pyridin-2-amine], under setting [2], the IC50 was determined as 38 nM.
Take `Cc1cc2ncnn2cc1C1CCN(S(=O)(=O)c2ccc3c(c2)CCO3)C1` (centres unmarked) [Compound 126, 6-(1-((2,3-dihydrobenzofuran-5-yl)sulfonyl)pyrrolidin-3-yl)-7-methyl-[1,2,4]triazolo[1,5-a]pyridine]: the IC50 under setting [1] was more than 10000 nM.
On the same count and under the same terms, the value for `[2H]C([2H])([2H])n1ncc(S(=O)(=O)N2CCC(c3cn4ncnc4cc3C)CC2)c1C1CC1` [Compound 131, 6-(1-((5-cyclopropyl-1-(methyl-d3)-1H-pyrazol-4-yl)sulfonyl)piperidin-4-yl)-7-methyl-[1,2,4]triazolo[1,5-a]pyridine] was 28 nM.
Turning to `Cc1cc2ncnn2cc1C1CC2CCC(C1)N2S(=O)(=O)c1cnn(C)c1C` (centres unmarked) [Compound 191, 6-(8-((1,5-dimethyl-1H-pyrazol-4-yl)sulfonyl)-8-azabicyclo[3.2.1]octan-3-yl)-7-methyl-[1,2,4]triazolo[1,5-a]pyridine], the IC50 is more than 10000 nM.
With `Cc1nc2[nH]ccc2nc1C1CCN(S(=O)(=O)c2ccc3ncsc3c2)CC1` [Compound 16, 6-((4-(3-methyl-5H-pyrrolo[2,3-b]pyrazin-2-yl)piperidin-1-yl)sulfonyl)benzo[d]thiazole], under setting [1], the IC50 is more than 10000 nM.
The same measure, in the same setting: under `Cc1cc2ncnn2cc1C1CCN(S(=O)(=O)c2c3ccccc3nn2C)CC1` [Compound 150, 7-methyl-6-(1-((2-methyl-2H-indazol-3-yl)sulfonyl)piperidin-4-yl)-[1,2,4]triazolo[1,5-a]pyridine] stands 325 nM; under `Cc1sc(C#N)nc1C1=CCN(S(=O)(=O)c2ccc3c(c2)CCO3)CC1` [Compound 205, 4-(1-((2,3-dihydrobenzofuran-5-yl)sulfonyl)-1,2,3,6-tetrahydropyridin-4-yl)-5-methylthiazole-2-carbonitrile], more than 10000 nM.
Turning to `Cc1ncc(S(=O)(=O)N2CCC(c3ccncc3C)CC2)s1` [Compound 430, 2-methyl-5-((4-(3-methylpyridin-4-yl)piperidin-1-yl)sulfonyl)thiazole], under setting [2], the IC50 is more than 10000 nM.
In the case of `COc1ccc(S(=O)(=O)N2CCC(c3cn4ncnc4cc3C)CC2)cc1C(F)(F)F` [Compound 130, 6-(1-((4-methoxy-3-(trifluoromethyl)phenyl)sulfonyl)piperidin-4-yl)-7-methyl-[1,2,4]triazoto[1,5-a]pyridine], under setting [1], the half-inhibitory concentration (IC50) is more than 10000 nM.
Still for that read-out and setting: the value for `O=S(=O)(c1cnn2c1OCCC2)N1CCC(c2ccc3ncnn3c2)CC1` [Compound 387, 3-((4-([1,2,4]triazolo[1,5-a]pyridin-6-yl)piperidin-1-yl)sulfonyl)-6,7-dihydro-5H-pyrazolo[5,1-b][1,3]oxazine] was 113 nM.
The same measure, in the same setting: under `Cc1sc(C#N)nc1C1CCN(S(=O)(=O)c2cnn(C)c2C)CC1` [Compound 225, 4-(1-((1,5-dimethyl-1H-pyrazol-4-yl)sulfonyl)piperidin-4-yl)-5-methylthiazole-2-carbonitrile] stands more than 10000 nM.
As for `CCc1cc2ncnn2cc1C1CCN(S(=O)(=O)c2cnn(C)c2CC#N)CC1` [Compound 408, 2-(4-((4-(7-ethyl-[1,2,4]triazolo[1,5-a]pyridin-6-yl)piperidin-1-yl)sulfonyl)-1-methyl-1H-pyrazol-5-yl)acetonitrile], the IC50 under setting [2] turned out to be 636 nM.
Regarding `Cc1cc2ncnn2cc1C1CCN(S(=O)(=O)c2nncn2C)CC1` [Compound 524, 7-methyl-6-(1-((4-methyl-4H-1,2,4-triazol-3-yl)sulfonyl)piperidin-4-yl)-[1,2,4]triazolo[1,5-a]pyridine], under setting [2], the IC50 was 493 nM.

These data come from US20230183237A1, “COMPETITIVE AND NONCOMPETITIVE INHIBITORS OF THE MUSCARINIC ACETYLCHOLINE RECEPTOR M5” (Vanderbilt University, priority 2020, published 2023).
